In patent publication US9439432B2, “Phenylisoxazoline-based compound having herbicidal activity and use thereof” (MOGHU RESEARCH CENTER LTD, priority 2011, dated 2016):

Columns and labels:
Assay type in all cases: in vivo
Corn [1] = test: Pre-emergence treatment, phytotoxicity to corn; conditions: 500 g/ha, 4 weeks after spraying, scale 0 to 10 (0: no effects, 10: complete death)
Outline: (§1)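 Scoring on a 0 (no effect) to 10 (complete death) scale was done four weeks after a pre-emergence spray, given one day post-sowing and irrigation, of 62.5–500 g/ha in acetone/tween 20 at 300 L/ha. Pots held 1:1 sandy loam and bed soil in a greenhouse, 25–30° C day, 15–25° C night.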

Digitaria sanguinalis [2] = test: Post-emergence treatment, herbicidal efficacy on large crabgrass; conditions: 4 weeks after spraying, scale 0 to 10
Outline: (§2)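 Scores run 0 (no effect) to 10 (complete death), read four weeks after a 300 L/ha track spray of acetone/0.2% Tween 20 solutions at 125–1,000 g/ha. Plants, grown in 1:1 sandy loam/bed soil under 25–30° C days and 15–25° C nights, were treated at roughly 3-leaf stage.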

Wheat [3] = test: Pre-emergence treatment, phytotoxicity to wheat; conditions: 500 g/ha, 4 weeks after spraying, scale 0 to 10 (0: no effects, 10: complete death)
Outline: as §1

Rice [4] = test: Post-emergence treatment, phytotoxicity to rice; conditions: post-emergence (about 3 leaf stage), 1,000 g/ha, 4 weeks after spraying, scale 0 to 10 (0: no effects, 10: complete death)
Outline: as §2

Alopecurus myosuroides [5] = test: Pre-emergence treatment, herbicidal efficacy on blackgrass; conditions: 4 weeks after spraying, scale 0 to 10
Outline: as §1

Cotton [6] = test: Pre-emergence treatment, phytotoxicity to cotton; conditions: 500 g/ha, 4 weeks after spraying, scale 0 to 10 (0: no effects, 10: complete death)
Outline: as §1

Wheat [7] = test: Post-emergence treatment, phytotoxicity to wheat; conditions: post-emergence (about 3 leaf stage), 1,000 g/ha, 4 weeks after spraying, scale 0 to 10 (0: no effects, 10: complete death)
Outline: as §2

[8] = system: grass weeds including barnyardrass, large crabgrass, and annual bluegrass; test: Pre-emergence treatment, grass weeds overall; conditions: relative to reference compounds
Experimental: (§3) A rectangular plastic pot having a surface area of 300 cm^2 was filled with sandy loam soil and mixed bed soil which were mixed at a ratio of 1:1, and then, barnyardrass (Echinochloa crusgalli), large crabgrass (Digitaria sanguinalis), blackgrass (Alopecurus myosuroides), and annual bluegrass (Poa annua), which are grass weeds, were seeded thereto. In a pot that was prepared as described above, seeds of corn, soybean, cotton, wheat, and rice were seeded. The pots were irrigated, and one day after, chemicals were sprayed thereto. The spraying was performed by using a track sprayer (R&D Sprayer, USA) equipped with a Teejet 8002 (Spraying Systems Co., USA) nozzle, and a spraying amount was adjusted at 300 L/ha. A spraying solution was prepared by dissolving test materials or references in acetone and adding the same amount of 0.2%(v/v) tween 20 aqueous solution thereto. Application rates were 500, 250, 125, and 62.5 g/ha. The pots were placed in a greenhouse in which during day, the temperature was maintained at a temperature of 25 to 30° C., and during night, the temperature was maintained at a temperature of 15 to 25° C., and the pots were periodically irrigated. Four weeks after the spraying the test materials or References, effects and phytotoxicity of the respective weeds and crops were evaluated in a scale of 0 to 10 (0: no effects, 10: complete death), and results thereof are shown in Table 4 below.

Poa annua [9] = test: Post-emergence treatment, herbicidal efficacy on annual bluegrass; conditions: 4 weeks after spraying, scale 0 to 10
Outline: as §2

Soybean [10] = test: Pre-emergence treatment, phytotoxicity to soybean; conditions: 500 g/ha, 4 weeks after spraying, scale 0 to 10 (0: no effects, 10: complete death)
Outline: as §1

Cotton [11] = test: Post-emergence treatment, phytotoxicity to cotton; conditions: post-emergence (about 3 leaf stage), 1,000 g/ha, 4 weeks after spraying, scale 0 to 10 (0: no effects, 10: complete death)
Outline: as §2

Soybean [12] = test: Post-emergence treatment, phytotoxicity to soybean; conditions: post-emergence (about 3 leaf stage), 1,000 g/ha, 4 weeks after spraying, scale 0 to 10 (0: no effects, 10: complete death)
Outline: as §2

Alopecurus myosuroides [13] = test: Post-emergence treatment, herbicidal efficacy on blackgrass; conditions: 4 weeks after spraying, scale 0 to 10
Outline: as §2

[14] = system: barnyardgrass, large crabgrass, and annual bluegrass; test: Post-emergence treatment, grass weeds overall; conditions: 250 g/ha
Experimental: as §3
Pots containing crops and weeds were prepared in the same manner as in Example 7, and then, in the second week in which crops and weeds entered into about 3 leaf stage, the test materials and the references were sprayed thereto in the same manner as described above. The rates were 1,000, 500, 250, and 125 g/ha. Four weeks after the spraying of the test materials or the references, herbicidal efficacy and phytotoxicity to the respective weeds and crops were evaluated in a scale of 0 to 10 (0: no effects, 10: complete death).

Corn [15] = test: Post-emergence treatment, phytotoxicity to corn; conditions: post-emergence (about 3 leaf stage), 1,000 g/ha, 4 weeks after spraying, scale 0 to 10 (0: no effects, 10: complete death)
Outline: as §2

Echinochloa crusgalli [16] = test: Pre-emergence treatment, herbicidal efficacy on barnyardgrass; conditions: 4 weeks after spraying
Outline: as §1

Rice [17] = test: Pre-emergence treatment, phytotoxicity to rice; conditions: 500 g/ha, 4 weeks after spraying, scale 0 to 10 (0: no effects, 10: complete death)
Outline: as §1

Echinochloa crusgalli [18] = test: Post-emergence treatment, herbicidal efficacy on barnyardgrass; conditions: 4 weeks after spraying, scale 0 to 10
Outline: as §2

Poa annua [19] = test: Pre-emergence treatment, herbicidal efficacy on annual bluegrass; conditions: 4 weeks after spraying, scale 0 to 10
Outline: as §1

Digitaria sanguinalis [20] = test: Pre-emergence treatment, herbicidal efficacy on large crabgrass; conditions: 4 weeks after spraying, scale 0 to 10
Outline: as §1

[21] = 500 g/ha, scale 0 to 10 (0: no effects, 10: complete death)

CC1(COCc2c(F)cccc2F)CC(c2ccccc2F)=NO1 (stereo not shown) [Compound 4, 5-((2,6-difluorobenzyloxy)methyl)-3-(2-fluorophenyl)-5-methyl-4,5-dihydroisoxazole]
1: Phytotoxicity, Cotton (Cotton [6]) | Phytotoxicity, Wheat (Wheat [7]) | Phytotoxicity, Soybean (Soybean [12])
9: Herbicidal efficacy, Alopecurus myosuroides (Alopecurus myosuroides [13]; post-emergence, 500 g/ha) | Herbicidal efficacy, Poa annua (Poa annua [19]; 62.5 g/ha)
2: Phytotoxicity, Rice (Rice [4])
6: Herbicidal efficacy, Digitaria sanguinalis (Digitaria sanguinalis [2]; post-emergence, 125 g/ha) | Herbicidal efficacy, Digitaria sanguinalis (Digitaria sanguinalis [2]; post-emergence, 250 g/ha) | Herbicidal efficacy, Poa annua (Poa annua [9]; post-emergence, 125 g/ha)
10: Herbicidal efficacy, Digitaria sanguinalis (Digitaria sanguinalis [2]; post-emergence, 500 g/ha) | Herbicidal efficacy, Digitaria sanguinalis (Digitaria sanguinalis [2]; post-emergence, 1,000 g/ha) | Herbicidal efficacy, Alopecurus myosuroides (Alopecurus myosuroides [5]; 500 g/ha) | Herbicidal efficacy, Poa annua (Poa annua [9]; post-emergence, 500 g/ha) | Herbicidal efficacy, Poa annua (Poa annua [9]; post-emergence, 1,000 g/ha) | Herbicidal efficacy, Alopecurus myosuroides (Alopecurus myosuroides [13]; post-emergence, 1,000 g/ha) | Herbicidal efficacy, Echinochloa crusgalli (Echinochloa crusgalli [16]; 125 g/ha, scale 0 to 10) | Herbicidal efficacy, Echinochloa crusgalli (Echinochloa crusgalli [16]; 250 g/ha, scale 0 to 10) | Herbicidal efficacy, Echinochloa crusgalli (Echinochloa crusgalli [16]; [21]) | Herbicidal efficacy, Echinochloa crusgalli (Echinochloa crusgalli [18]; post-emergence, 500 g/ha) | Herbicidal efficacy, Echinochloa crusgalli (Echinochloa crusgalli [18]; post-emergence, 1,000 g/ha) | Herbicidal efficacy, Poa annua (Poa annua [19]; 125 g/ha) | Herbicidal efficacy, Poa annua (Poa annua [19]; 250 g/ha) | Herbicidal efficacy, Poa annua (Poa annua [19]; 500 g/ha) | Herbicidal efficacy, Digitaria sanguinalis (Digitaria sanguinalis [20]; 62.5 g/ha) | Herbicidal efficacy, Digitaria sanguinalis (Digitaria sanguinalis [20]; 125 g/ha) | Herbicidal efficacy, Digitaria sanguinalis (Digitaria sanguinalis [20]; 250 g/ha) | Herbicidal efficacy, Digitaria sanguinalis (Digitaria sanguinalis [20]; 500 g/ha)
4: Phytotoxicity, Corn (Corn [1]) | Herbicidal efficacy, Alopecurus myosuroides (Alopecurus myosuroides [5]; 125 g/ha) | Herbicidal efficacy, Alopecurus myosuroides (Alopecurus myosuroides [13]; post-emergence, 250 g/ha) | Phytotoxicity, Corn (Corn [15])
8: Herbicidal efficacy, Alopecurus myosuroides (Alopecurus myosuroides [5]; 250 g/ha) | Herbicidal efficacy, Echinochloa crusgalli (Echinochloa crusgalli [18]; post-emergence, 250 g/ha)
7: Herbicidal efficacy, Poa annua (Poa annua [9]; post-emergence, 250 g/ha) | Herbicidal efficacy, Echinochloa crusgalli (Echinochloa crusgalli [16]; 62.5 g/ha, scale 0 to 10)
5: Herbicidal efficacy, Echinochloa crusgalli (Echinochloa crusgalli [18]; post-emergence, 125 g/ha)
greatly suppressed: suppression of barnyardgrass, large crabgrass, and annual bluegrass [14]
0: Phytotoxicity, Wheat (Wheat [3]) | Phytotoxicity, Soybean (Soybean [10]) | Phytotoxicity, Cotton (Cotton [11]) | Herbicidal efficacy, Alopecurus myosuroides (Alopecurus myosuroides [13]; post-emergence, 125 g/ha) | Phytotoxicity, Rice (Rice [17])
about 4 times: efficacy stronger than the References [8]
3: Herbicidal efficacy, Alopecurus myosuroides (Alopecurus myosuroides [5]; 62.5 g/ha)

CC1(COCc2c(F)cccc2F)CC(c2ccccc2C(F)(F)F)=NO1 (stereo not shown) [Compound 5, 5-((2,6-difluorobenzyloxy)methyl)-5-methyl-3-(2-(trifluoromethyl)phenyl)-4,5-dihydroisoxazole]
0: Phytotoxicity, Wheat (Wheat [3]) | Phytotoxicity, Rice (Rice [4]) | Phytotoxicity, Wheat (Wheat [7]) | Phytotoxicity, Cotton (Cotton [11]) | Phytotoxicity, Rice (Rice [17])
7: Herbicidal efficacy, Alopecurus myosuroides (Alopecurus myosuroides [5]; 250 g/ha) | Herbicidal efficacy, Poa annua (Poa annua [9]; post-emergence, 250 g/ha)
9: Herbicidal efficacy, Alopecurus myosuroides (Alopecurus myosuroides [13]; post-emergence, 1,000 g/ha) | Herbicidal efficacy, Poa annua (Poa annua [19]; 62.5 g/ha) | Herbicidal efficacy, Poa annua (Poa annua [19]; 125 g/ha) | Herbicidal efficacy, Poa annua (Poa annua [19]; 250 g/ha)
10: Herbicidal efficacy, Digitaria sanguinalis (Digitaria sanguinalis [2]; post-emergence, 500 g/ha) | Herbicidal efficacy, Digitaria sanguinalis (Digitaria sanguinalis [2]; post-emergence, 1,000 g/ha) | Herbicidal efficacy, Poa annua (Poa annua [9]; post-emergence, 1,000 g/ha) | Herbicidal efficacy, Echinochloa crusgalli (Echinochloa crusgalli [16]; 62.5 g/ha, scale 0 to 10) | Herbicidal efficacy, Echinochloa crusgalli (Echinochloa crusgalli [16]; 125 g/ha, scale 0 to 10) | Herbicidal efficacy, Echinochloa crusgalli (Echinochloa crusgalli [16]; 250 g/ha, scale 0 to 10) | Herbicidal efficacy, Echinochloa crusgalli (Echinochloa crusgalli [16]; [21]) | Herbicidal efficacy, Echinochloa crusgalli (Echinochloa crusgalli [18]; post-emergence, 500 g/ha) | Herbicidal efficacy, Echinochloa crusgalli (Echinochloa crusgalli [18]; post-emergence, 1,000 g/ha) | Herbicidal efficacy, Poa annua (Poa annua [19]; 500 g/ha) | Herbicidal efficacy, Digitaria sanguinalis (Digitaria sanguinalis [20]; 62.5 g/ha) | Herbicidal efficacy, Digitaria sanguinalis (Digitaria sanguinalis [20]; 125 g/ha) | Herbicidal efficacy, Digitaria sanguinalis (Digitaria sanguinalis [20]; 250 g/ha) | Herbicidal efficacy, Digitaria sanguinalis (Digitaria sanguinalis [20]; 500 g/ha)
2: Phytotoxicity, Soybean (Soybean [10]) | Phytotoxicity, Soybean (Soybean [12])
6: Herbicidal efficacy, Digitaria sanguinalis (Digitaria sanguinalis [2]; post-emergence, 125 g/ha) | Herbicidal efficacy, Alopecurus myosuroides (Alopecurus myosuroides [5]; 125 g/ha) | Herbicidal efficacy, Poa annua (Poa annua [9]; post-emergence, 125 g/ha) | Herbicidal efficacy, Echinochloa crusgalli (Echinochloa crusgalli [18]; post-emergence, 125 g/ha)
4: Herbicidal efficacy, Alopecurus myosuroides (Alopecurus myosuroides [13]; post-emergence, 250 g/ha)
3: Phytotoxicity, Corn (Corn [1])
about 8 times: efficacy stronger than the References [8]
1: Phytotoxicity, Cotton (Cotton [6]) | Herbicidal efficacy, Alopecurus myosuroides (Alopecurus myosuroides [13]; post-emergence, 125 g/ha)
5: Herbicidal efficacy, Alopecurus myosuroides (Alopecurus myosuroides [5]; 62.5 g/ha) | Herbicidal efficacy, Alopecurus myosuroides (Alopecurus myosuroides [13]; post-emergence, 500 g/ha) | Phytotoxicity, Corn (Corn [15])
greatly suppressed: suppression of barnyardgrass, large crabgrass, and annual bluegrass [14]
8: Herbicidal efficacy, Digitaria sanguinalis (Digitaria sanguinalis [2]; post-emergence, 250 g/ha) | Herbicidal efficacy, Alopecurus myosuroides (Alopecurus myosuroides [5]; 500 g/ha) | Herbicidal efficacy, Poa annua (Poa annua [9]; post-emergence, 500 g/ha) | Herbicidal efficacy, Echinochloa crusgalli (Echinochloa crusgalli [18]; post-emergence, 250 g/ha)
